For orientation: Ki means the equilibrium dissociation constant of an inhibitor or competing ligand from its target. The low end stands for higher affinity, the high end for lower affinity. A word on the IC50: it is the concentration needed to halve the response being measured. Low values mean greater potency in that assay, high ones weaker potency in that assay.

Here are results for 56 compounds from ChEMBL document CHEMBL3046949, “New molecular scaffolds for the design of Alzheimers acetylcholinesterase inhibitors identified using ligand- and receptor-based virtual screening” (Med Chem Res, 2013).

Structures are written as SMILES.

Assay [1] has as its target Acetylcholinesterase (Homo sapiens, UniProt P22303).
Description: Binding affinity to acetylcholinesterase (unknown origin)
The target in assay [2] is T1, Acetylcholinesterase (Rattus norvegicus, UniProt P37136).
T1 sequence (P37136 whole entry): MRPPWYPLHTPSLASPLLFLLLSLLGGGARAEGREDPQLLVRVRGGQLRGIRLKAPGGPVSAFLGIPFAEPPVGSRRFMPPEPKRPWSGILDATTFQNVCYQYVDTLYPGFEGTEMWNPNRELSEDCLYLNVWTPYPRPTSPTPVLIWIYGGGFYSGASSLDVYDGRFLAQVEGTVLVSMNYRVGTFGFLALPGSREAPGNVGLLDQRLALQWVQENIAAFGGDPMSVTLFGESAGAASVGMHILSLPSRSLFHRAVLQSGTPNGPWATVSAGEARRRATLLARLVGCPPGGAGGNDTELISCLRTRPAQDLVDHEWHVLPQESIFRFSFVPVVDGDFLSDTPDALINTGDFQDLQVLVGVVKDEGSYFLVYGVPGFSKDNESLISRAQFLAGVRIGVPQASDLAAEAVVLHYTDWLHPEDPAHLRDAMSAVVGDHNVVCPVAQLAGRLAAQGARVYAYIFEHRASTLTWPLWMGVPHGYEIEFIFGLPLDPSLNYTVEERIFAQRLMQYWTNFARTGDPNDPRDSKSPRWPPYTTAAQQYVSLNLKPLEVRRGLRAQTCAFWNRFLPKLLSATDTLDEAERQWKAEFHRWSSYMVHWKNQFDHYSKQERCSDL
Description: Inhibition of acetylcholinesterase in Rattus norvegicus (rat) cortex by Ellman method

Chain of Acetylcholinesterase (Homo sapiens, UniProt P22303) (P22303 whole entry): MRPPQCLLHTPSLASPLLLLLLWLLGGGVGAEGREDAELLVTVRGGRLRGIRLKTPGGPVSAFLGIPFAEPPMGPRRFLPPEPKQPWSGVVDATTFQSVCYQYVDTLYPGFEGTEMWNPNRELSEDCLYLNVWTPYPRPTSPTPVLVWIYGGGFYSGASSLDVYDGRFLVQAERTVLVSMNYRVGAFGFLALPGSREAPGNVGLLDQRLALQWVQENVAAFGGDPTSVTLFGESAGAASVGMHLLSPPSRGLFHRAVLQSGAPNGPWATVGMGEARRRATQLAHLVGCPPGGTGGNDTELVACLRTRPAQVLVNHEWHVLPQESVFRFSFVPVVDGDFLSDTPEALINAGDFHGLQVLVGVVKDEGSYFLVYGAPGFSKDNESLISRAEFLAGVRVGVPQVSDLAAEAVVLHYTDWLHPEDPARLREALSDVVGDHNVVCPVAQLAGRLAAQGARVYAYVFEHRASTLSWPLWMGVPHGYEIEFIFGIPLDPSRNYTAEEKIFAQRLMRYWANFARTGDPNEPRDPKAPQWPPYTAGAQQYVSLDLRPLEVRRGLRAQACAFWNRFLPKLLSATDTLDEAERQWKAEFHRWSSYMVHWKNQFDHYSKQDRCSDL

`CCN(CC)C(C)c1ccc(OC2Cc3cc(OC)c(OC)cc3C2=O)cc1` (stereo not drawn) showed a Ki at Acetylcholinesterase [1] of 1.33 µM.

For the compound `COc1cc2c(cc1OC)C(=O)C(Cc1ccc(CN3CCCCC3)cc1)C2` (stereo not drawn), the Ki on Acetylcholinesterase [1] is 0.0738 µM. This compound had an IC50 on Acetylcholinesterase [2] of 0.123 µM. The corresponding values for `COc1cc2c(cc1OC)C(=O)/C(=C/c1ccc(CN3CCCCC3)cc1)C2` are 0.0952 µM and 0.102 µM. In the same order, the values of `CCN(C)Cc1ccc(/C=C2\Cc3cc(OC)c(OC)cc3C2=O)cc1` are 0.92 µM and 0.263 µM.

Consider `O=C(Nc1ccc(OC(F)(F)F)cc1)OC1CN(C(c2ccccc2)c2ccccc2)C1`, for which the Ki on Acetylcholinesterase [1] was determined as 0.0228 µM. With `O=c1c(Cl)c(N2CCN(c3ccc(C(F)(F)F)cn3)CC2)cnn1-c1c(Cl)cc(C(F)(F)F)cc1Cl`, the affinity at Acetylcholinesterase [1], expressed as Ki, was 2.87 µM. As for `CCN(CC)Cc1ccc(CC2Cc3cc(OC)c(OC)cc3C2=O)cc1` (stereo not drawn), the Ki at Acetylcholinesterase [1] is 1.04 µM. As to `COc1cc2c(cc1OC)C(=O)/C(=C/c1cccc(CN3CCCC3)c1)C2`, on Acetylcholinesterase [1], the Ki was 0.127 µM. Moreover, at Acetylcholinesterase [2], the IC50 was 0.234 µM. Regarding `COc1cc2c(cc1OC)C(=O)/C(=C/c1cccc(CN(C)C)c1)C2`, the Ki at Acetylcholinesterase [1] turned out to be 0.0622 µM.

Turning to `COc1cc2c(cc1OC)C(=O)C(Oc1cccc(C(C)N3CCCCC3)c1)C2` (stereo not drawn), the affinity at Acetylcholinesterase [1], expressed as Ki, was 0.0382 µM. Compound `O=C(NC1CCN(Cc2ccccc2)CC1)c1ccc2c(c1)OCCCO2` returned a Ki at Acetylcholinesterase [1] of 0.0953 µM. In turn, `COc1cc2c(cc1OC)C(=O)C(Oc1cccc(C(C)N(C)C)c1)C2` (stereo not drawn) showed a Ki on Acetylcholinesterase [1] of 0.4 µM. Consider `COc1cc2c(cc1OC)C(=O)/C(=C/c1cccc(CN3CCCCC3)c1)C2`, for which, on Acetylcholinesterase [1], affinity was put at a Ki of 0.0709 µM. On Acetylcholinesterase [2], inhibition was half-maximal at 0.162 µM (IC50).

As to `COc1cc2c(cc1OC)C(=O)C(Oc1ccc(C(C)N3CCN(C)CC3)cc1)C2` (stereo not drawn), at Acetylcholinesterase [1], the Ki amounted to 0.228 µM.

As to `COc1cc2c(cc1OC)C(=O)/C(=C/c1ccc(CN(C)C)cc1)C2`, the Ki at Acetylcholinesterase [1] is 0.617 µM.

Turning to `COc1cc2c(cc1OC)C(=O)C(Oc1cccc(C(C)N3CCCC3)c1)C2` (stereo not drawn), affinity at Acetylcholinesterase [1] was put at a Ki of 0.138 µM. On Acetylcholinesterase [1], `CC(C)(C)c1ccc(/C(N)=N/OC(=O)c2cnn(-c3ccc([N+](=O)[O-])cc3)c2C(F)(F)F)cc1` gave a Ki of 0.521 µM. `COc1cc2c(cc1OC)C(=O)C(Oc1cccc(C(C)N3CCN(C)CC3)c1)C2` (stereo not drawn): the Ki at Acetylcholinesterase [1] was determined as 0.0777 µM. On Acetylcholinesterase [1], `O=[N+]([O-])c1ccc(OCC(O)CN2CCCN(c3nc4ccc(Cl)cc4s3)CC2)cc1` (stereo not drawn) displayed a Ki of 0.263 µM. At Acetylcholinesterase [1], `COc1cc2c(cc1OC)C(=O)C(Oc1ccc(CN3CCCC3)cc1)C2` (stereo not drawn) had a Ki of 0.257 µM. As to `COc1cc2c(cc1OC)C(=O)C(Cc1cccc(CN3CCCC3)c1)C2` (stereo not drawn), the Ki on Acetylcholinesterase [1] turned out to be 0.0223 µM.

The compound `O=C(Nc1ccc(OC(F)(F)F)cc1)N1CCCN(CCc2ccccc2)CC1` displayed a Ki at Acetylcholinesterase [1] of 0.241 µM. Same read-out and setting: for `COc1cc2c(cc1OC)C(=O)C(Oc1ccc(C(C)N3CCCCC3)cc1)C2` (stereo not drawn) the value was 0.106 µM; for `CC(CN1CCN(Cc2ccccc2)CC1)N(C(=O)c1cccc([N+](=O)[O-])c1)c1ccccn1` (stereo not drawn), 0.0614 µM. On the same count and under the same terms, then `O=C(CN1CCN(Cc2ccccc2)CC1)Nc1ccc(C(F)(F)F)cc1Cl`, with 0.0473 µM; and `N/C(=N\OC(=O)c1cnn(-c2ccc([N+](=O)[O-])cc2)c1C(F)(F)F)c1ccc(Cl)cc1`, with 2.35 µM.

In turn, `COc1cc2c(cc1OC)C(=O)C(Oc1ccc(CN(C)C)cc1)C2` (stereo not drawn) came in with an inhibition constant (Ki) at Acetylcholinesterase [1] of 0.209 µM. Consider `CCN(CC)Cc1ccc(OC2Cc3cc(OC)c(OC)cc3C2=O)cc1` (stereo not drawn), for which, at Acetylcholinesterase [1], the affinity, expressed as Ki, was 1.34 µM. Turning to `COc1cc2c(cc1OC)C(=O)C(Oc1ccc(CN3CCN(C)CC3)cc1)C2` (stereo not drawn), the Ki at Acetylcholinesterase [1] is 0.0695 µM. For `CCN(C)Cc1cccc(CC2Cc3cc(OC)c(OC)cc3C2=O)c1` (stereo not drawn), on Acetylcholinesterase [1], the Ki amounted to 0.507 µM. In turn, `COc1cc2c(cc1OC)C(=O)C(Cc1cccc(CN3CCCCC3)c1)C2` (stereo not drawn) displayed a Ki at Acetylcholinesterase [1] of 0.0593 µM. As for `COc1cc2c(cc1OC)C(=O)C(Oc1ccc(CN3CCCCC3)cc1)C2` (stereo not drawn), affinity on Acetylcholinesterase [1] was put at a Ki of 0.403 µM. Still for that read-out and setting: then `CCN(CC)Cc1cccc(OC2Cc3cc(OC)c(OC)cc3C2=O)c1` (stereo not drawn), with 1.59 µM. Turning to `CCN(C)Cc1ccc(CC2Cc3cc(OC)c(OC)cc3C2=O)cc1` (stereo not drawn), at Acetylcholinesterase [1], the Ki was 0.918 µM. On the same count and under the same terms, for `N/C(=N\OC(=O)c1cnn(-c2ccc([N+](=O)[O-])cc2)c1C(F)(F)F)c1ccc(C(F)(F)F)cc1` the value was 2.07 µM; for `O=C(CC1S/C(=N/c2ccc(C3CCCCC3)cc2)NC1=O)Nc1ccc(OC(F)(F)F)cc1` (stereo not drawn), 0.897 µM.

Take `COc1cc2c(cc1OC)C(=O)C(Cc1cccc(CN(C)C)c1)C2` (stereo not drawn): the Ki at Acetylcholinesterase [1] was 0.525 µM. `COc1cc2c(cc1OC)C(=O)C(Oc1cccc(CN3CCN(C)CC3)c1)C2` (stereo not drawn) showed a Ki at Acetylcholinesterase [1] of 0.0621 µM. In turn, `COc1cc2c(cc1OC)C(=O)C(Oc1ccc(C(C)N3CCOCC3)cc1)C2` (stereo not drawn) gave a Ki on Acetylcholinesterase [1] of 0.217 µM. Still for that read-out and setting: then `CCN(CC)Cc1cccc(CC2Cc3cc(OC)c(OC)cc3C2=O)c1` (stereo not drawn), with 0.0217 µM; and `CCN(CC)C(C)c1cccc(OC2Cc3cc(OC)c(OC)cc3C2=O)c1` (stereo not drawn), with 0.865 µM; and `Cc1c(S(=O)(=O)c2ccc(Cl)cc2)csc1C(=O)NC1CCN(Cc2ccccc2)CC1`, with 0.0213 µM.

For the compound `CSc1cccc(/N=C2\NC(=O)C(CC(=O)Nc3ccc(F)c(F)c3)S2)c1` (stereo not drawn), the Ki at Acetylcholinesterase [1] is 0.13 µM. For the compound `CCN(CC)Cc1ccc(/C=C2\Cc3cc(OC)c(OC)cc3C2=O)cc1`, affinity on Acetylcholinesterase [1] was put at a Ki of 0.453 µM. The same measure, in the same setting: then `CCN(C)Cc1cccc(/C=C2\Cc3cc(OC)c(OC)cc3C2=O)c1`, with 0.235 µM; and `COc1cc2c(cc1OC)C(=O)C(Oc1ccc(C(C)N3CCCC3)cc1)C2` (stereo not drawn), with 0.403 µM.

With `COc1cc2c(cc1OC)C(=O)C(Oc1ccc(CN3CCOCC3)cc1)C2` (stereo not drawn), on Acetylcholinesterase [1], the Ki was 0.514 µM. Compound `COc1cc2c(cc1OC)C(=O)C(Oc1cccc(CN3CCCCC3)c1)C2` (stereo not drawn) displayed a Ki at Acetylcholinesterase [1] of 0.266 µM. `CCN(CC)Cc1cccc(/C=C2\Cc3cc(OC)c(OC)cc3C2=O)c1` registered a Ki on Acetylcholinesterase [1] of 0.237 µM. 0.447 µM corresponded to half-maximal inhibition against Acetylcholinesterase [2] (IC50). `COc1cc2c(cc1OC)C(=O)C(Cc1ccc(CN3CCCC3)cc1)C2` (stereo not drawn): the Ki on Acetylcholinesterase [1] was 0.773 µM. At Acetylcholinesterase [2], this compound gave an IC50 of 0.155 µM. On Acetylcholinesterase [1], `COc1cc2c(cc1OC)C(=O)/C(=C/c1ccc(CN3CCCC3)cc1)C2` gave an inhibition constant (Ki) of 0.198 µM. At Acetylcholinesterase [1], `COc1ccc(C(=O)NC2CCN(Cc3c(F)cccc3Cl)CC2)cc1OC` returned a Ki of 0.0548 µM. On Acetylcholinesterase [1], `COc1cc2c(cc1OC)C(=O)C(Oc1cccc(C(C)N3CCOCC3)c1)C2` (stereo not drawn) returned a Ki of 0.118 µM. The compound `COc1cc2c(cc1OC)C(=O)C(Oc1ccc(C(C)N(C)C)cc1)C2` (stereo not drawn) displayed a Ki at Acetylcholinesterase [1] of 0.543 µM. Compound `COc1cc2c(cc1OC)C(=O)C(Oc1cccc(CN3CCOCC3)c1)C2` (stereo not drawn) showed a Ki at Acetylcholinesterase [1] of 0.793 µM. Same read-out and setting: then `COc1cc2c(cc1OC)C(=O)C(Oc1cccc(CN(C)C)c1)C2` (stereo not drawn), with 1 µM.
